Assay results taken from US20240269194A1, “COMPOSITIONS AND METHODS FOR ISLET CELL TRANSPLANTS” (City of Hope, priority 2021, published 2024).
Entries after “also recorded” stand apart in the source; their conditions may differ.

Key:
T1D patients = format: in vivo, human
Description: Gastrin is a natural hormone that is secreted by the stomach and is involved in fetal pancreas development. […] Building on these observations, it was tested whether gastrin treatment will improve islet engraftment, induced beta cell expansion/function, and enhanced islet transplant outcomes in T1D individuals. A gastrin analogue (GAST-17) was produced and obtained FDA-IND approval to evaluate its safety and efficacy in a Phase I/II, prospective, single-arm trial to improve outcomes in T1D recipients undergoing a single islet transplant and two 30-day courses for GAST-17. The trial has been initiated with the first two treated individuals achieving insulin independence with roughly half of the islet dose normally required.
The success of clinical islet transplantation depends on transplantation of adequate islet mass and minimizing graft loss secondary to ischemia and inflammation. After infusion into the portal vein, islets are exposed to damaging inflammatory factors (the so-called instant blood-mediated inflammatory reaction, IBMIR). This involves activation of the complement and coagulation cascades, ultimately resulting in clot formation and infiltration of leukocytes into the islets. The IBMIR may be triggered by islet surface molecules, such as tissue factor and collagen residues that are normally not in direct contact with the blood. Also, ischemic stress during islet isolation results in production of inflammatory mediators by islets. Strategies to mitigate the IBMIR include the treatment of recipients with anticoagulants or pre-conditioning islets with anti-inflammatory agents. As inflammatory reactions are thought to negatively impact islet engraftment in the early post-transplant period, etanercept, a TNFα mitigator, and anakinra, an IL-1 receptor antagonist, are used to limit acute transplant-related inflammation. […]
Treatment course 1. […] Subjects are monitored for adverse effects and assessed for preliminary efficacy at 1, 2.5, and 6 months after starting the first course of GAST-17. […]

non-diabetic Wistar rats = assay: Beta and alpha cell content of pancreas by laser scanning cytometry after 30-day treatment; format: in vivo, rat
Description: The islet expansion effects of GAST-17 were evaluated in non-diabetic Wistar rats (10 males and 10 females in each group). At the end of 30-day treatment, animals were terminated, pancreata excised and immuno-stained for beta and alpha cell content using laser scanning cytometry (LSC) (FIGS. 2A and 2B).
Gastrin analogue, GAST-17, stimulates beta cell expansion. T2D individuals display a loss of beta cell numbers and function. Increasing beta cell mass is considered a possible therapy for T2D (37). The islet expansion effects of GAST-17 were evaluated in non-diabetic Wistar rats (10 males and 10 females in each group). At the end of 30-day treatment, pancreata were excised and stained for beta and alpha cell content counting using laser scanning cytometry (FIGS. 24A and 24B).

[1] = system: transplanted human islets; assay: Human islets transplanted to livers of NOD mice: 18F-TCE4 microPET, insulin staining, blood glucose; format: in vivo, mouse; conditions: 150 μg/kg/dose three times daily, 30 days
Description: Isolated human islets were transplanted (Tx) to the livers of NOD mice followed by GAST-17 treatment for 30 days (150 μg/kg/dose, injected three times daily) (Tx+Treated, n=7) and compared to mice receiving islet transplant alone (Tx only, n=5) and untreated controls (Normal, n=5). After completion of treatment, whole mice and organs of interest were imaged (in vivo and ex vivo) with ^18F-TC-Exendin-4 (TCE4) using microPET and a high specific activity labeling technique developed at COH for targeting islets (49). […] Beta cell mass was calculated as percent beta cell area of the total cell surface area found on immunolabeled tissue sections. Data from 4 livers from mice treated with islet transplant alone (“−Gastrin”) and five livers from mice treated with islet transplant and gastrin treatment (“+Gastrin”) (˜32 slides per liver) were assessed.
Gastrin analogue, GATS-17, promotes expansion/neogenesis of transplanted human islets. Isolated human islets were transplanted (Tx) into livers of NOD/SCID mice followed by GAST-17 treatment for 30 days (150 μg/kg/dose, injected three times daily) (Tx+Treated, n=7) and compared to mice receiving islet transplant alone (Tx only, n=5) and untreated controls (Normal, n=5). After completion of treatment, whole mice and organs of interest were imaged (in vivo and ex vivo) with ^18F-TC-Exendin-4 (TCE4) using microPET (a high specific activity labeling technique developed at COH for targeting islets).

human islets [2] = assay: qPCR gene expression in isolated human islets treated for 48 hours; format: cell-based
Description: Isolated human islets from 11 donors with varied glycemic control (HbA1c 5.2-10.4) were treated with GAST-17 for 48 hours and gene expression was analyzed by qPCR. […] Gene expression levels were not increased in islets from donors with an HbA1c <6.0 (FIG. 9). The increase in insulin mRNA correlated with the HbA1c levels, with higher insulin transcripts seen in islets from donors with more elevated HbA1c (FIG. 10).

human islets [3] = assay: Long-term human islet culture with and without GAST-17, inflammatory gene expression; format: cell-based; conditions: non-diabetic donors, long-term culture (1516 days), 21% oxygen
Description: Long-term islet culture is associated with expression of inflammatory cytokines and islet stress/damage. Human islets from non-diabetic donors were cultured with and without GAST-17 long-term (1516 days) at normal oxygen concentrations (21%).

human islets [4] = assay: Human islets challenged with inflammatory cytokines, glucose-mediated insulin secretion; format: cell-based; conditions: inflammatory cytokine challenge
Description: Gastrin is expressed in insulin^+ and somatostatin^+ cells in islets from people with T2D. As noted, gastrin increased insulin/somatostatin in delta cells, and this correlated positively with islet donor A1c levels (64). Extending these published and new findings, human islets were challenged with inflammatory cytokines (to mimic the harsh environment of transplantation) in the presence and absence of GAST-17 and glucose-mediated insulin secretion was determined.

gastrin receptor CCKBR = molecular target: T1, gastrin receptor CCKBR (Homo sapiens, UniProt P32239); assay: Gastrin receptor blockade with YM022, qPCR in human islets; format: cell-based; conditions: YM022 together with 100 nM gastrin, donors with high HbA1c
T1 construct: Human islets express the gastrin receptor CCKBR; from tissue; host or cells: isolated human pancreatic islets from donors
T1 sequence (P32239 whole entry): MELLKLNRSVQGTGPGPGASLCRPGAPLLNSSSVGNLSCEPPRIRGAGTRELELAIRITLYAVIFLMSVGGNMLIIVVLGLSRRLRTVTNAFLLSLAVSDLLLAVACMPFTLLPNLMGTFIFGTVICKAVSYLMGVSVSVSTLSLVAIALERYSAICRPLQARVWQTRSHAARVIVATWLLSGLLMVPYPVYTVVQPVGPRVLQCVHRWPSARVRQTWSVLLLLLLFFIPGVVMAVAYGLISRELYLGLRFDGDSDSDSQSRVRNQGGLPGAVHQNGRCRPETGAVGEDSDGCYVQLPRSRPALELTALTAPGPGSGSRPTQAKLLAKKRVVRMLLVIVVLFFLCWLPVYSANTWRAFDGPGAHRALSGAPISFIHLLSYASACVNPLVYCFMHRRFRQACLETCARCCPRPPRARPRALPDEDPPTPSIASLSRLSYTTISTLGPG
Description: To establish that gastrin effect is mediated through activation of the gastrin receptor CCKBR, islets were treated with either 100 nM gastrin or 100 nM gastrin together with the CCKBR antagonist YM022.

[5] = donors HbA1c >6.0 (n=5), P<0.0001

Molecule	insulin independence (T1D patients; first two T1D patients, single islet transplant <6,100 IEQ/kg)	engraftment and blood glucose normalization (T1D patients; two T1D individuals, 15 μg/kg twice daily, month 1 and 7, <6,100 IEQ/kg)	time to insulin freedom (T1D patients; two patients, single IT (<6,100 IEQ/kg BW))	percentage of alpha cells (non-diabetic Wistar rats; 30-day treatment vs controls)	average percentage of beta cells of total cells per slide (non-diabetic Wistar rats; 30-day treatment, all treatment groups vs controls)	native beta cell expansion, ex vivo imaging of the pancreas ([1]; p=0.000063)	18F-TCE4 uptake by islet grafts in liver, in vivo (whole body images) ([1]; vs control group, p=0.000015)	18F-TCE4 uptake by islet grafts, ex vivo (excised liver) ([1]; vs control group, p=0.000036)	gene expression levels (insulin, somatostatin, glucagon) (human islets [2]; donors HbA1c <6.0)	insulin transcripts (human islets [2]; [5])	somatostatin transcripts (human islets [2]; [5])	glucagon transcripts (human islets [2]; donors HbA1c >6.0 (n=5), P<0.02)	mRNA levels of transcription factors MAFA, MNX1, NKX2.2, NKX6.1, PDX1 and HHEX (human islets [2]; only in HbA1c >6.0 group)	expression of IL-10 (human islets [3])	islet expression of inflammatory genes (human islets [3])	glucose-mediated insulin secretion (human islets [4])	human islet damage from inflammatory cytokines (human islets [4])	insulin+/somatostatin+ cell numbers (human islets [4])	insulin, somatostatin and glucagon mRNA levels (gastrin receptor CCKBR)
[Leu^15] Gastrin-17 [GAST-17]	achieving insulin independence with half of the islet mass normally required	rapid engraftment and total normalization of blood glucose	achieved insulin freedom within two weeks	did not change	significantly increased	significant expansion	significantly increased; also recorded: significantly higher	significantly increased; also recorded: significantly higher	not increased	significant increase	significant increase	significant increase	significant increases	increased expression of IL-10	reduced islet expression of inflammatory genes	enhanced insulin secretion	reduced human islet damage from inflammatory cytokines	increased insulin+/somatostatin+ cell numbers	
Cc1cccc(NC(=O)N[C@@H]2N=C(c3ccccc3)c3ccccc3N(CC(=O)c3ccccc3C)C2=O)c1 [YM022]																			remained un-changed
